Test results published in patent US8653263B2 (Janssen Pharmaceutica, priority 2009, dated 2014).

These compounds were tested against human orexin-2 receptor (Homo sapiens (Human), UniProt O43614) (assay: Human orexin 2 receptor radioligand binding ([3H]-EMPA competition)). Conditions: HEK293 cells stably expressing human orexin-2 receptor; [3H]-EMPA 5 nM final; apparent Ki=IC50/(1+C/Kd), Kd=2 nM; read-out: OR 2 Ki.
Chain of human orexin-2 receptor (O43614 whole entry): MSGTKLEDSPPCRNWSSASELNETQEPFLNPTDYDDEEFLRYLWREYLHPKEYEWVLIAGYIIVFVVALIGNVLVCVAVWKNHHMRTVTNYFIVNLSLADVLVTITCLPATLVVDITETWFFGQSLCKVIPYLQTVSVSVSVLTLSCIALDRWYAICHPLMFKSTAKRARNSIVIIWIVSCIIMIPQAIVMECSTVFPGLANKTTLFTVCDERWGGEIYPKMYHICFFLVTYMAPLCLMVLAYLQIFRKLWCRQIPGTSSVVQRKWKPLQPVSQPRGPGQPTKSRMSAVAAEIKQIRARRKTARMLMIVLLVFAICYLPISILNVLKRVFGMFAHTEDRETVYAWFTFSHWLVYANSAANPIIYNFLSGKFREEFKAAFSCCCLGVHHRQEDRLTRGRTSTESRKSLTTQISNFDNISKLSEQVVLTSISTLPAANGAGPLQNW

SMILES	Ki [µM]
CCOc1cccc(N2CC3CN(C(=O)c4ccccc4-n4nccn4)CC3C2)n1 (stereo not drawn) [Example 147, 2-(6-Ethoxypyridin-2-yl)-5-{[2-(2H-1,2,3-triazol-2-yl)phenyl]carbonyl}octahydro pyrrolo[3,4-c]pyrrole]	0.085
O=C(c1cc(F)ccc1-c1ncccn1)N1CC2CN(c3nccc(C(F)(F)F)n3)CC2C1 (stereo not drawn) [Example 148, 2-[(5-Fluoro-2-pyrimidin-2-ylphenyl)carbonyl]-5-[4-(trifluoromethyl)pyrimidin-2-yl]octahydropyrrolo[3,4-c]pyrrole]	0.129
O=C(c1ccccc1-n1nccn1)N1CC2CN(c3cnc4ccccc4n3)CC2C1 (stereo not drawn) [Example 149, 2-[5-{[2-(2H-1,2,3-Triazol-2-yl)phenyl]carbonyl}hexahydropyrrolo[3,4-c]pyrrol-2(1H)-yl]quinoxaline]	0.173
COc1ccnc(N2CC3CN(C(=O)c4cc(F)ccc4-c4ncccn4)CC3C2)n1 (stereo not drawn) [Example 150, 2-[(5-Fluoro-2-pyrimidin-2-ylphenyl)carbonyl]-5-(4-methoxypyrimidin-2-yl)octahydropyrrolo[3,4-c]pyrrole]	0.092
O=C(c1ccccc1-n1nccn1)N1CC2CN(c3nccc(-c4ccco4)n3)CC2C1 (stereo not drawn) [Example 151, 2-(4-Furan-2-ylpyrimidin-2-yl)-5-{[2-(2H-1,2,3-triazol-2-yl)phenyl]carbonyl}octahydropyrrolo[3,4-c]pyrrole]	0.184
O=C(c1ccccc1-n1nccn1)N1CC2CN(c3ccc(F)cn3)CC2C1 (stereo not drawn) [Example 152, 2-(5-Fluoropyridin-2-yl)-5-{[2-(2H-1,2,3-triazol-2-yl)phenyl]carbonyl}octahydro pyrrolo[3,4-c]pyrrole]	0.125
O=C(c1ccccc1-n1nccn1)N1CC2CN(c3nccc(C(F)(F)F)n3)CC2C1 (stereo not drawn) [Example 153, 2-{[2-(2H-1,2,3-Triazol-2-yl)phenyl]carbonyl}-5-[4-(trifluoromethyl)pyrimidin-2-yl]octahydropyrrolo[3,4-c]pyrrole]	0.075
COc1ccnc(N2CC3CN(C(=O)c4ccccc4-c4ncn[nH]4)CC3C2)n1 (stereo not drawn) [Example 154, 2-(4-Methoxypyrimidin-2-yl)-5-{[2-(1H-1,2,4-triazol-5-yl)phenyl]carbonyl}octahydropyrrolo[3,4-c]pyrrole]	0.241
Cc1cnc(C)c(N2CC3CN(C(=O)c4ccccc4-n4nccn4)CC3C2)n1 (stereo not drawn) [Example 155, 2-(3,6-Dimethylpyrazin-2-yl)-5-{[2-(2H-1,2,3-triazol-2-yl)phenyl]carbonyl}octahydropyrrolo[3,4-c]pyrrole]	0.033
COc1ccnc(N2CC3CN(C(=O)c4ccccc4-n4nccn4)CC3C2)n1 (stereo not drawn) [Example 156, 2-(4-Methoxypyrimidin-2-yl)-5-{[2-(2H-1,2,3-triazol-2-yl)phenyl]carbonyl}octahydropyrrolo[3,4-c]pyrrole]	0.039
Cc1cncc(N2CC3CN(C(=O)c4ccc(F)cc4-n4nccn4)CC3C2)n1 (stereo not drawn) [Example 158, 2-{[4-Fluoro-2-(2H-1,2,3-triazol-2-yl)phenyl]carbonyl}-5-(6-methylpyrazin-2-yl)octahydropyrrolo[3,4-c]pyrrole]	0.055
COc1ccnc(N2CC3CN(C(=O)c4ccc(F)cc4-n4nccn4)CC3C2)n1 (stereo not drawn) [Example 159, 2-{[4-Fluoro-2-(2H-1,2,3-triazol-2-yl)phenyl]carbonyl}-5-(4-methoxypyrimidin-2-yl)octahydropyrrolo[3,4-c]pyrrole]	0.045
COc1cc(OC)nc(N2CC3CN(C(=O)c4ccc(F)cc4-n4nccn4)CC3C2)n1 (stereo not drawn) [Example 160, 2-(4,6-Dimethoxypyrimidin-2-yl)-5-{[4-fluoro-2-(2H-1,2,3-triazol-2-yl)phenyl]carbonyl}octahydropyrrolo[3,4-c]pyrrole]	0.058
COc1ccc(C(=O)N2CC3CN(c4nc5ccc(Cl)cc5s4)CC3C2)c(OC)c1 (stereo not drawn) [Example 163, 6-Chloro-2-{5-[(2,4-dimethoxyphenyl)carbonyl]hexahydropyrrolo[3,4-c]pyrrol-2(1H)-yl}-1,3-benzothiazole]	0.38
O=C(c1ccccc1-c1ccccc1)N1CC2CN(c3nccc(-c4ccccc4)n3)CC2C1 (stereo not drawn) [Example 164, 2-(Biphenyl-2-ylcarbonyl)-5-(4-phenylpyrimidin-2-yl)octahydropyrrolo[3,4-c]pyrrole]	0.289
COc1cccc(OC)c1C(=O)N1CC2CN(c3cnc4ccccc4n3)CC2C1 (stereo not drawn) [Example 165, 2-{5-[(2,6-Dimethoxyphenyl)carbonyl]hexahydropyrrolo[3,4-c]pyrrol-2(1H)-yl}quinoxaline]	0.852
COc1cccc(OC)c1C(=O)N1CC2CN(c3nccc(-c4ccccc4)n3)CC2C1 (stereo not drawn) [Example 166, 2-[(2,6-Dimethoxyphenyl)carbonyl]-5-(4-phenylpyrimidin-2-yl)octahydropyrrolo[3,4-c]pyrrole]	0.465
COc1ccc(C(=O)N2CC3CN(c4nccc(-c5ccccc5)n4)CC3C2)c(OC)c1 (stereo not drawn) [Example 167, 2-[(2,4-Dimethoxyphenyl)carbonyl]-5-(4-phenylpyrimidin-2-yl)octahydropyrrolo[3,4-c]pyrrole]	0.411
O=C(c1ccccc1-c1ccccc1)N1CC2CN(c3cnc4ccccc4n3)CC2C1 (stereo not drawn) [Example 168, 2-[5-(Biphenyl-2-ylcarbonyl)hexahydropyrrolo[3,4-c]pyrrol-2(1H)-yl]quinoxaline]	0.066
O=C(c1ccccc1-c1ccccc1)N1CC2CN(c3nc4ccccc4s3)CC2C1 (stereo not drawn) [Example 169, 2-[5-(Biphenyl-2-ylcarbonyl)hexahydropyrrolo[3,4-c]pyrrol-2(1H)-yl]-1,3-benzothiazole]	0.595
COc1ccc(C(=O)N2CC3CN(c4cc(C)c5ccccc5n4)CC3C2)c(OC)c1 (stereo not drawn) [Example 170, 2-{5-[(2,4-Dimethoxyphenyl)carbonyl]hexahydropyrrolo[3,4-c]pyrrol-2(1H)-yl}-4-methylquinoline]	0.945
COc1ccc(C(=O)N2CC3CN(c4nc5ccc(OC)cc5s4)CC3C2)c(OC)c1 (stereo not drawn) [Example 171, 2-{5-[(2,4-Dimethoxyphenyl)carbonyl]hexahydropyrrolo[3,4-c]pyrrol-2(1H)-yl}-6-methoxy-1,3-benzothiazole]	0.78
COc1ccc(C(=O)N2CC3CN(c4nc5ccc(C)cc5s4)CC3C2)c(OC)c1 (stereo not drawn) [Example 172, 2-{5-[(2,4-Dimethoxyphenyl)carbonyl]hexahydropyrrolo[3,4-c]pyrrol-2(1H)-yl}-6-methyl-1,3-benzothiazole]	0.45
Cc1cccc(N2CC3CN(C(=O)c4ccccc4-c4ccccc4)CC3C2)n1 (stereo not drawn) [Example 173, 2-(Biphenyl-2-ylcarbonyl)-5-(6-methylpyridin-2-yl)octahydropyrrolo[3,4-c]pyrrole]	0.95
Cc1ccnc(N2CC3CN(C(=O)c4ccccc4-c4ccccc4)CC3C2)n1 (stereo not drawn) [Example 174, 2-(Biphenyl-2-ylcarbonyl)-5-(4-methylpyrimidin-2-yl)octahydropyrrolo[3,4-c]pyrrole]	0.729
O=C(c1ccccc1-c1ccccc1)N1CC2CN(c3ccc4ccccc4n3)CC2C1 (stereo not drawn) [Example 175, 2-[5-(Biphenyl-2-ylcarbonyl)hexahydropyrrolo[3,4-c]pyrrol-2(1H)-yl]quinoline]	0.669
O=C(c1ccccc1-c1ccccc1)N1CC2CN(c3nc4ccc(F)cc4s3)CC2C1 (stereo not drawn) [Example 176, 2-[5-(Biphenyl-2-ylcarbonyl)hexahydropyrrolo[3,4-c]pyrrol-2(1H)-yl]-6-fluoro-1,3-benzothiazole]	0.236
